Measured values as given in PMC7655109, “High-resolution structures of multiple 5-HT3AR-setron complexes reveal a novel mechanism of competitive inhibition” (eLife, 2020).

What was measured:
Format in all cases: cell-based
[1] = target: T1, 5-HT3AR (serotonin (3) receptor subunit A, homopentamer) (Mus musculus, UniProt P23979); assay: cryo-EM structure ([…] Å); also TEVC inhibition of serotonin currents in oocytes
T1 construct: gene Htr3a; full-length, C-terminal 1D4-tag and four N-terminal strep-tags; modelled Thr7–Leu335 and Leu397–Ser462
T1 sequence (P23979 34-483 isoform P23979-2): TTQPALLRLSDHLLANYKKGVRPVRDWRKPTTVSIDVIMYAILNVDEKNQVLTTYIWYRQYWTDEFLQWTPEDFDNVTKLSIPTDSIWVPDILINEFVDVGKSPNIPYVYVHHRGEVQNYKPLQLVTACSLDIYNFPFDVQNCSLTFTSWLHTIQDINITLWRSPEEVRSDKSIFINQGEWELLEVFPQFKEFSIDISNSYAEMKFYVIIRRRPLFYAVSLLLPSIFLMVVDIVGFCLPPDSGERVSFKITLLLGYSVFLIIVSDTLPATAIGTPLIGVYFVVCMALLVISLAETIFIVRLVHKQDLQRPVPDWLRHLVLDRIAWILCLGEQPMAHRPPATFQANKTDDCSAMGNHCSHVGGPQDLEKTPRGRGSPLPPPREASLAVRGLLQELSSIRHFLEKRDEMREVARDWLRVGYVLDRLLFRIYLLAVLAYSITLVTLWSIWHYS

[2] = target: T1, 5-HT3AR (serotonin (3) receptor subunit A, homopentamer); assay: as above; remark: listed apart in the source
[3] = target: T1, 5-HT3AR (serotonin (3) receptor subunit A, homopentamer); assay: as above; remark: listed apart in the source
[4] = target: T2, 5-HT3AR (serotonin (3) receptor subunit A, homopentamer) (Mus musculus, UniProt P23979); assay: two-electrode voltage clamp in oocytes, inhibition of serotonin-induced current on co-application
T2 construct: gene Htr3a; 5-HT3AR expressed in Xenopus laevis oocytes
T2 sequence (P23979 24-489): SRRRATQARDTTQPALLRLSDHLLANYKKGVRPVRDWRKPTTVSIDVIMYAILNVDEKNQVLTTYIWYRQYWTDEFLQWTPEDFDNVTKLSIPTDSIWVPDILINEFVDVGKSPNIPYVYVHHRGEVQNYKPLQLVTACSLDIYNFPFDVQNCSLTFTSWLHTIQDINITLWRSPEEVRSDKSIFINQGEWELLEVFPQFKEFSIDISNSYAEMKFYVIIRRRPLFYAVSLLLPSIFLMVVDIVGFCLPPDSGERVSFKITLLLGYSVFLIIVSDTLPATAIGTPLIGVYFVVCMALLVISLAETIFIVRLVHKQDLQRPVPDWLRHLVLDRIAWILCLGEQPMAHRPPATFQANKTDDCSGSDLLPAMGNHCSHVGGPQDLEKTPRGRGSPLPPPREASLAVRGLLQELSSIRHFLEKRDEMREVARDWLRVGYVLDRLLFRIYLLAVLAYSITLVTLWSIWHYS

With Cc1nccn1CC1CCc2c(c3ccccc3n2C)C1=O (stereo not shown) [ondansetron] the “inhibition of serotonin currents in oocytes” value [1] was ~ 0.1 nM.
With Cc1[nH]cnc1CN1CCc2c(c3ccccc3n2C)C1=O [alosetron] the “potency for TEVC inhibition of serotonin currents” value [2] was ~ 0.1 nM.
O=C1c2cccc3c2[C@H](CCC3)CN1[C@@H]1CN2CCC1CC2 [palonosetron] was tested, and the “cryo-EM structure (3.32 Å); also TEVC inhibition of serotonin currents in oocyte” value [3] was ~ 1 nM.
With CN1C2CCCC1CC(NC(=O)c1nn(C)c3ccccc13)C2 (stereo not shown) [granisetron] the “two-electrode voltage clamp in oocytes, inhibition of serotonin-induced current” value [4] was ~ 1 nM.
